Patent US20200239530A1, “COMPOUNDS AND METHODS OF MODULATING PROTEIN DEGRADATION” (Vividion Therapeutics, Inc., priority 2017, published 2020)

Molecular target: T1, UBE2O (E3-independent) E2 ubiquitin-conjugating enzyme (Homo sapiens, UniProt Q9C0C9)
T1 construct: Cells were resuspended in cold PBS on ice and sonicated with a probe sonicator to achieve lysis; endogenous in cells
T1 sequence (Q9C0C9 1-1292): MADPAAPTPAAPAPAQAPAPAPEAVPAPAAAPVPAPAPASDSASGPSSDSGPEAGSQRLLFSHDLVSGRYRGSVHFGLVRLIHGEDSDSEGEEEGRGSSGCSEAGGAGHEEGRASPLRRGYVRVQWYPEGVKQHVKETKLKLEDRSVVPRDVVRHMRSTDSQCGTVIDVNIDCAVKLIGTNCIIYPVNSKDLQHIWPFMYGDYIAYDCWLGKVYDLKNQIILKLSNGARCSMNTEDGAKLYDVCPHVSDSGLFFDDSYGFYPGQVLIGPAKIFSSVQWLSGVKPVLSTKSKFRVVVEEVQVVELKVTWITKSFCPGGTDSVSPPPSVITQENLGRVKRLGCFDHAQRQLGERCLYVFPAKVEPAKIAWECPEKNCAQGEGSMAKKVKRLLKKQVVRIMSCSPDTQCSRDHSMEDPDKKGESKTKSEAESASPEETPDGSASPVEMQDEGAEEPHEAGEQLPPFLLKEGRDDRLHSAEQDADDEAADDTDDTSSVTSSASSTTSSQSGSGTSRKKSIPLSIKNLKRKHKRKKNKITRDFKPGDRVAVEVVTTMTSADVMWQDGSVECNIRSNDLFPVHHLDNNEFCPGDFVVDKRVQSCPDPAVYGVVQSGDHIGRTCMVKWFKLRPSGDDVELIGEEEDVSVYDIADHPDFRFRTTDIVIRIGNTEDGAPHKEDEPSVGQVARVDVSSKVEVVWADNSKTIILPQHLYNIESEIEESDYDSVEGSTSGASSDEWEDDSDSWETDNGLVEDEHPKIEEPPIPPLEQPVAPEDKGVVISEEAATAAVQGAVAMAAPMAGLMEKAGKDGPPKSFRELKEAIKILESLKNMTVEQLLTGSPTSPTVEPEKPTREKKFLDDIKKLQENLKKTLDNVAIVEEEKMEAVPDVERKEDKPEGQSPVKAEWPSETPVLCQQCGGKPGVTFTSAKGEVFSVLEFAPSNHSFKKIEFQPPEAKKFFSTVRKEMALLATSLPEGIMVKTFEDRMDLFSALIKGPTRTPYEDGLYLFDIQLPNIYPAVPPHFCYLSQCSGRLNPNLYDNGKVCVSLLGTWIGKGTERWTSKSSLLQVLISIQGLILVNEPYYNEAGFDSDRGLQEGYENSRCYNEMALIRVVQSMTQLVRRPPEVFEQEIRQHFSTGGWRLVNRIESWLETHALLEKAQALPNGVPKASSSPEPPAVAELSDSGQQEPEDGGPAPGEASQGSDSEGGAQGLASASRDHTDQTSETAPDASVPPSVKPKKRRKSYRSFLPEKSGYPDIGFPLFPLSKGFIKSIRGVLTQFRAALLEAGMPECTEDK
Experiment: Cysteine liganding, probe competition
Type: binding
Summary of the method: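 Read-out is loss of desthiobiotin iodoacetamide labelling at cysteines, measured on streptavidin-enriched tryptic peptides. Compound preincubation ran 1 hr at 25° C in PBS lysate holding 5 mg/ml proteome before the probe was added.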

Row | Structure (SMILES) | Liganded (UBE2O Res# 370, uniprot Q9C0C9) | Liganded (UBE2O Res# 400, uniprot Q9C0C9) | Liganded (UBE2O Res# 910, uniprot Q9C0C9) | Liganded (UBE2O Res# 913, uniprot Q9C0C9)
1 | COc1ccc2c(c1)CCCN2C(=O)CCl [KB02] | YES | YES | YES | YES
2 | O=C(CCl)Nc1cc(C(F)(F)F)cc(C(F)(F)F)c1 [KBO3] | YES | – | – | –
